{"source": "patent US20050191348A1", "about": "(priority 2004, published 2005)", "key": {"MAPK": {"system": "MAPK", "assay": "MAPK activation (phospho-p44/42 MAPK immunoblot) in PC12 cells", "type": "cell-based, rat", "experimental": "(viii) Extracellular signal-regulated kinase (ERK) activity. The kinase activity of the ERKs was measured using the MAPK assay kit (Cell Signaling Technology) according to the manufacturer's protocol. In brief, for kinase activity assays, PC12 cells were grown in 6-well plates (5×10^5 cells/well). Eighteen to twenty-four hours before experiments, the medium was replaced with DMEM with 0.5% FCS and treated as described in the figures. Experimental treatments were performed in 1 ml medium containing 0.5% FCS, with the vehicle or test drugs and/or inhibitors at 37° C., as described in the figures. After treatment, reactions were stopped by placing cells on ice and aspirating the medium. Cells were harvested in 50 mM Tris-HCl, pH 8.0, 150 mM NaCl, 5 mM EDTA, 1 mM DTT, 1% Triton X-100, and protease- and phosphatase-inhibitor cocktails. Protein concentration was determined by the Bradford method. As described previously (Yogev-Falach et al., 2002), each cell lysate, containing 30 μg protein, was separated on 4-12% SDS-polyacrylamide electrophoresis gels, immunoblotted, and identified using phospho-p44/42 MAPK (Thr202/Tyr204) antibody or p44/42 MAPK antibody. Data are representative of three to six independent experiments.\nTo study the effect of rasagiline on MAPK activation, PC12 cells were treated for 0.5 h with increasing concentrations of rasagiline (0.1, 1 and 10 μM), and quantification of the phospho-MAPK blots were normalized using the total MAPK blots, or PC12 cells were preincubated for 15 min with vehicle alone, or with PD98059 (30 μM) or GF109203X (2.5 μM) and then incubated without or with rasagiline (10 μM) for 0.5 h. Aliquots of cell lysates were then subjected to immunoblot analysis and probed with anti-phospho-MAPK (top blots) and anti-MAPK (bottom blots).\nFor the effect of propargylamine on MAPK activation, PC12 cells were treated for 0.5 h with increasing concentrations of propargylamine (0.1, 1 and 10 μM). Aliquots of cell lysates were then subjected to immunoblot analysis and probed with anti-phospho-MAPK and anti-MAP kinase. Quantification of the phospho-MAPK were normalized using the total MAPK blots."}, "sAPPα": {"system": "sAPPα", "assay": "sAPPα release into medium of SH-SY5Y neuroblastoma cells", "type": "cell-based, human", "settings": "3 h; for sAPPα secretion (fold/basal): 1 μM, SH-SY5Y conditioned media, mean ± SE of three experiments", "experimental": "For the experiments, cells were seeded (2×10^6) onto 100-mm plates (for SH-SY5Y cells) or T75 flasks (for PC12 cells) in culture medium supplemented with full serum for 48 h. The cells were replaced with fresh medium containing 0.5% FCS for an additional 24 h (subconfluent culture), and then the experiments were performed in fresh medium containing 0.5% FCS for the indicated time periods at 37° C. After incubation with various drugs, the conditioned media were collected, centrifuged at 3500 g (10 min, 4° C.) to remove cell debris, and the cleared supernatants were concentrated 10-fold by lyophilization.\n(vii) Determination of sAPP. Protein concentrations of cell lysates were assayed using Bradford reagent (Sigma Chemical). Equal amounts of volumes of conditioned medium, standardized to lysate protein, were subjected to […], using either the MAbs 22C11 or 6E10 in 50 mM Tris-HCl, pH 7.4, 150 mM NaCl, containing 0.05% Tween 20 and 1% BSA. Immunoreactivity was detected using anti-mouse IgG-conjugated with HRP and an enhanced chemiluminescence method (Amersham, Pharmacia Biotech, UK). Blots were developed for different times to span a linear range of response, and the relative intensity of immunoreactive bands on the exposed films was quantified by computer-assisted densitometry program (Quantity One, Bio-Rad, Hercules, Calif., USA).\nIt was of interest to determine whether rasagiline and other propargylamine-containing drugs also regulate APP processing. For this purpose, SH-SY5Y neuroblastoma cells were incubated for 3 h without or with 1 μM of various drugs (TV3326 and its S-isomer TV3279, rasagiline and its S-isomer TVP1022, selegiline, aminoindan), and sAPPα was measured in the media as described in Materials and Methods.\nWe further characterized, in detail, the effect of rasagiline on APP processing and the signaling pathways that are involved. Thus, SH-SY5Y neuroblastoma cells were incubated for 3 h without or with increasing concentrations of rasagiline (0.1, 1 and 10 μM), and sAPPα was measured in the media as described in Materials and Methods.\nFor the sAPPα release, SH-SY5Y neuroblastoma cells or PC12 cells were incubated for 3 h without or with increasing concentrations of propargylamine (0.1, 1 and 10 μM), and sAPPα was measured in the media as described in Materials and Methods."}, "[1]": {"system": "Bcl-2 family and PKC isoform mRNA", "assay": "Gene expression by quantitative real-time RT-PCR in serum-free PC12 cells", "type": "cell-based, rat", "experimental": "(vi) Total RNA extraction. PC12 cells were cultured in DMEM containing 5% FCS and 10% horse serum until confluence. At the day of the experiment, the medium was replaced with fresh medium without serum and rasagiline or propargylamine at various concentrations were administered for 24 h. At the end of incubation, the medium was removed and isolation of total RNA was performed, using Tri Reagent™ Isolation reagent. Total RNA was treated with DNase-RNase free (Roche Diagnostics, Mannheim, Germany) for 30 min at 37° C. and subsequently extracted by a round of phenol:chlorophorm:isoamylalcohol (25:24:1), followed by one of chloroform. After precipitation with NaOAc (0.3 M) and ethyl alcohol, the RNA pellet was washed with 80% ethyl alcohol (12,000×g) for 10 min and resuspended in 50-100 μl of diethylpyrocarbonate (DEPC)-treated water and incubated for 5-10 min at 56° C. to facilitate resuspension.\n(vi) Reverse transcription (RT) and quantitative real-time RT-PCR. In order to confirm the results obtained with the customized cDNA expression micro-array, 2 μg of total RNA were denatured and reverse transcribed using random hexanucleotides (0.5 μg/μl). Secondary structures of the template and primer (total volume of 16 μl) were opened by incubation for 5 min at 70° C. and immediately cooled on ice. Reaction mix (9 μl) containing reaction buffer, dNTP (0.5 mm each), RNAasin™ RNAase inhibitor (Promega) (25U) and M-MLV reverse transcriptase (200U) was added and samples were incubated at 39° C. for 1 h. For every RNA preparation a negative control was run in parallel consisting of a direct amplification of the RNA sample, omitting the RT step. The samples were transferred to 92° C. for 10 min, in order to deactivate the enzyme, and then cooled to 4° C.\nQuantitative real-time PCR, using LightCycler and FastStart DNA Master SYBR Green I ready-to use PCR mix, was performed according to the manufacture's protocol (Roche Diagnostics, Mannheim, Germany). cDNA (40 ng) was amplified in 20 μl total volume. The sequences of the primers and the size of the products are described in Table 1. The results are analyzed on the provided program of the LightCycler. The relative expression level of a given mRNA was assessed by normalizing to the housekeeping gene 18S-rRNA and compared with control values.\nIn this experiment, we examined whether Bcl-2 family proteins mediate the pro-survival effect of rasagiline, using serum-starved rat pheochromocytoma PC12 cell line as a model of neuronal apoptosis. PC12 cells were maintained in full-serum (control), or in serum-free (SF) media in the absence or presence of various concentrations of rasagiline (0.001, 0.1, 1 and 10 μM) for 3 h or 24 h, and gene expression was measured by quantitative real-time RT-PC. The real-time RT-PCR consists of RNA samples isolated from said PC-12 cells. Each gene expression was normalized to the housekeeping gene, 18S-rRNA, since this transcript was reported to be less susceptible to the influence by external factors.\nThe effect of propargylamine on Bad and Bax mRNA levels was examined as described in Example 5 above."}, "PC12 cells": {"system": "PC12 cells", "settings": "PC12, 10 μM, 24 h"}, "[2]": {"system": "p-PKC (pan), PKCα and PKCε", "assay": "PKC translocation to membrane fraction of PC12 cells", "type": "cell-based, rat", "settings": "PC12, 100 nM, 2 h", "experimental": "(v) PKC translocation. Cells were cultured to confluence and treated for 2 h with either no drug (control), phorbol 12-myristate-13-acetate (PMA) (positive control) or rasagiline. After washing, the cells were harvested, collected by centrifugation (5 min, 1500 rpm), and homogenized by sonication (12 s, 22μ) in homogenization buffer (20 mM Tris-HCl, pH 7.4, 0.32 M sucrose, 2 mM EDTA, 50 mM β-mercaptoethanol) containing a protease inhibitor cocktail (Sigma Aldrich, Sweden). Cytosolic and particulate fractions were separated by ultracentrifugation (30 min, 100,000 g, 4° C.). For the particulate fraction, proteins were extracted by a 45 min incubation on ice in homogenization buffer containing 0.5% Triton X-100. Samples were then sonicated for 1 min and equivalent amounts of protein (15 μg) separated by PAGE followed by blotting onto nitrocellulose paper. Western blotting was performed essentially as described above using antibodies against p-PKC (pan), PKCα and PKCε.\nPKC translocation to the membrane fraction upon activation and membrane localization is often used as a marker for PKC activation."}}, "note": "Marks after values point to notes of the source that are not given here."}
{"compound": "NC1CCc2ccccc21", "note": "(stereo not drawn) [Aminoindan, aminoindan]", "values": [{"measurement": "MAPK phosphorylation", "setting": "MAPK; PC12, 0.1, 1 and 10 μM, 0.5 h", "result": "did not show such effects"}, {"measurement": "sAPPα secretion (fold/basal)", "setting": "sAPPα", "result": "1.23 ± 0.32", "unit": "fold/basal"}, {"measurement": "sAPPα released into the medium", "setting": "sAPPα; SH-SY5Y, 0.1, 1 and 10 μM, versus untreated cells", "result": "did not show such effects"}]}
{"compound": "C#CCN(C)[C@H](C)Cc1ccccc1", "note": "[Selegiline, R-(−)-N-methyl-N-(prop-2-ynyl)-2-aminophenylpropane]", "values": [{"measurement": "sAPPα secretion (fold/basal)", "setting": "sAPPα", "result": "2.03 ± 0.21^c fold/basal"}]}
{"compound": "C#CCN[C@@H]1CCc2ccccc21", "note": "[Rasagiline, N-propargyl-(1R)-aminoindan]", "values": [{"measurement": "lowest dose giving MAPK activation", "setting": "MAPK; PC12, 0.5 h", "result": 0.1, "unit": "µM"}, {"measurement": "Bad mRNA reduction", "setting": "[1]; 1 μM, 3 h", "result": "1.35 fold vs. serum free treatment"}, {"measurement": "Bcl-xL mRNA expression increase", "setting": "[1]; 10 μM, 24 h, compared to serum-free culture", "result": "about 2 fold"}, {"measurement": "Bad mRNA reduction", "setting": "[1]; 0.01 and 0.1 μM, 24 h", "result": "~2.5 fold vs. serum free culture"}, {"measurement": "Bcl-W mRNA expression", "setting": "[1]; 0.1, 1 and 10 μM, 24 h", "result": "135 % of serum-free culture"}, {"measurement": "sAPPα secretion (fold/basal)", "setting": "sAPPα", "result": "2.97 ± 0.15^b fold/basal"}, {"measurement": "increase in sAPPα secretion over the basal levels", "setting": "sAPPα; SH-SY5Y, 10 μM (maximal effect)", "result": "~3.0", "unit": "fold"}]}
{"compound": "Aβ1-42: amyloidogenic Aβ peptide, used as toxic insult", "values": [{"measurement": "cell viability", "setting": "PC12 cells", "result": "66 % of control"}]}
{"compound": "C#CCN[C@H]1CCc2ccc(OC(=O)N(C)CC)cc21", "note": "[TV3279]", "values": [{"measurement": "sAPPα secretion (fold/basal)", "setting": "sAPPα", "result": "2.76 ± 0.36^b fold/basal"}]}
{"compound": "COc1cccc(-c2cc(=O)c3ccccc3o2)c1N", "note": "[PD98059]", "values": [{"measurement": "effect on rasagiline-induced MAPK phosphorylation", "setting": "MAPK; PC12, pretreatment 30 μM, rasagiline 10 μM 0.5 h", "result": "blocked the rasagiline-induced increase of MAPK phosphorylation"}]}
{"compound": "CCCCCCCCCCCCCC(=O)O[C@@H]1[C@@H](C)[C@@]2(O)[C@@H](C=C(CO)C[C@]3(O)C(=O)C(C)=C[C@@H]23)[C@@H]2C(C)(C)[C@]12OC(C)=O", "note": "[PMA, phorbol 12-myristate-13-acetate]", "values": [{"measurement": "translocation of PKCα", "setting": "[2]", "result": 157, "unit": "%"}, {"measurement": "translocation of PKCε", "setting": "[2]", "result": 212, "unit": "%"}, {"measurement": "translocation of p-PKC (pan)", "setting": "[2]", "result": 214, "unit": "%"}]}
{"compound": "C#CCN[C@@H]1CCc2ccc(OC(=O)N(C)CC)cc21", "note": "[TV3326, (N-propargyl-(3R)aminoindan-5yl)-ethyl methyl carbamate]", "values": [{"measurement": "sAPPα secretion (fold/basal)", "setting": "sAPPα", "result": "2.86 ± 0.35^b fold/basal"}]}
